In EP4782431A1 (Suzhou Merna Therapeutics Co. Ltd, priority 2023, dated 2025):

Assays:
[1] = stability of crystal forms (XRPD, HPLC, color); type: physicochemical; settings: for Crystal form: XRPD
Description: A 2θ scanning angle of the sample was 3°-40°, a scanning step size was 0.02°, and a scanning time per step was 0.12 s/step. An optical tube voltage and a current were 40 kV and 40 mA, respectively. During sample preparation, an appropriate amount of the sample was placed on a sample tray and flattened with a tool such as a glass slide to ensure a smooth and even surface.
An Agilent 1260 infinityII binary pump was used for solubility and stability testing.
The stability of samples under these conditions was detected by XRPD and HPLC, and whether the samples had color changes was observed.
(§1) A certain amount of the crystal form C of the compound of formula (I) was weighed and placed in an open container at 25°C/92.5%RH for 1 week. A certain amount of the crystal form C of the compound of formula (I) was weighed and placed in a closed container at 60°C for 1 week. The stability of samples under these conditions was detected by XRPD and HPLC, and whether the samples had color changes was observed. Table 16 Stability test results of the crystal form C of the compound of formula (I)
as §1, with “form D” for “form C”, “Table 17” for “Table 16”
as §1, with “form E” for “form C”, “Table 18” for “Table 16”

[2] = tested on: rat models with a hand-foot skin reaction; experiment: rat models with a hand-foot skin reaction; type: in vivo, SD rats
Description: After adaptive feeding for one week, SD rats (with a body weight of approximately 200 g) were randomly divided into groups with balanced body weight, with 12 rats in each group. Modeling drugs (including sorafenib, erlotinib, afatinib, and osimertinib) were respectively dissolved in a solution containing 5% of DMSO, 45% of PEG400, and 50% of H2O, and the modeling drugs were diluted to required concentrations and then administered once daily by gavage at doses shown in Table 3. After administration by gavage for 1 hour, 0.05 g of ointments containing different mass proportions of test compounds were evenly applied to left paws of the rats, a blank matrix ointment was applied to right paws of the rats to serve as a self-control, and no ointment was applied to the rats in a blank control group. After drug application, four limbs were continuously immobilized for 2 hours, then wiped with clean water to remove the residual drugs, removed from immobilization, and restored to free movement. The modeling drugs, the blank matrix ointment, and the ointments containing the test compounds were all administered once daily. After continuous administration for 30 days, the rats were euthanized, and paw plantar skin tissues were collected, fixed in 10% neutral formalin, […]. The ointments for the test compounds were prepared by mixing the compounds, white beeswax, white petrolatum, and light liquid paraffin in specific ratios (weight ratios of 3 ointments were respectively 1:18:58:23, 3:18:57:22, and 10:20:40:30). The blank matrix ointment was prepared by mixing white beeswax, white petrolatum, and light liquid paraffin in a specific ratio (weight ratio of 18:60:22).
Tissue staining: After dewaxing and rehydration, the paw plantar skin tissue sections of the above rats were stained in a hematoxylin solution for several minutes, cleaned, and placed in 1% acid alcohol for soaking until the sections faded to light blue-red. After cleaning with running water for 5 minutes, the sections were stained with eosin for 2-3 minutes, cleaned to remove excess dyes, dehydrated, then permeabilized by adding xylene for several minutes, and sealed and fixed with a neutral resin. The stratum corneum was observed under an optical microscope, and the thickness of the epidermal stratum corneum was measured using Dmetrix software.
Immunohistochemical staining: After dewaxing and hydration, the paw plantar skin tissue sections of the above rats were incubated with 3% H2O2 at room temperature for 30 minutes and blocked with 10% goat serum for 30 minutes after antigen retrieval. A KRT1 antibody (Abcam, ab93652) and a Loricrin antibody (Abcam, ab183646) were added dropwise, the sections were incubated overnight at 4°C, and an HRP secondary antibody (ZSGB-BIO, PV-6001) and a DAB kit (ZSG-BIO, ZLI9017) were added for color development. The sections were re-stained with hematoxylin, cleaned, and sealed and fixed with a neutral resin, and the expression amounts of KRT1 and Loricrin were observed under an optical microscope.
An incidence rate calculation method involves a proportion of animals in each group meeting the above criteria for determining successful modeling, that is, incidence rate = (number of successfully modeled rats/total number of rats in the group)*100%. […]

[3] = hygroscopicity by dynamic vapor sorption (DVS); type: physicochemical; settings: for 1st adsorption Percentage of weight change / 1st desorption Percentage of weight change / 2nd adsorption Percentage of weight change / 2nd desorption Percentage of weight change: 40-0-95-0-40%RH, 240 min per step
Description: ProUmid SPSx-1µ Advance was used for analysis of a sample. The sample to be tested was approximately in an amount of 5-50 mg. A temperature in a test chamber was controlled at 25±1°C, a relative humidity cycle was […], a step size was 10%, an equilibrium time was 240 minutes per step, and mass data was recorded every 20 seconds.
A DVS cycle was 40-0-95-0-40%RH. XRPD detection was performed on samples after the DVS testing to determine whether crystal form transformation occurred.

[4] = modeling drug alone by gavage once daily 30 days (Sorafenib 100, Erlotinib 70, Afatinib 50, Osimertinib 60 mg/kg), no test compound

## NC(=O)[C@H]1CCCc2c1[nH]c1ccc(Cl)cc21 [Crystal form C, (S)-6-chloro-2,3,4,9-tetrahydro-1H-carbazole-carboxamide]
[1]; 25°C/92.5%RH, open, 1 week
  Color: No change
  Degradation (%): 0.6%
  Purity (%): 99.1%
[1]; 60°C, closed, 1 week
  Color: Changed
  Degradation (%): 0.1%
  Purity (%): 99.6%
[1]; Initial
  Purity (%): 99.7%

## C#Cc1cccc(Nc2ncnc3cc(OCCOC)c(OCCOC)cc23)c1 [Erlotinib, erlotinib, reference compound]
[2]; rat, in vivo
  KRT1 and Loricrin in tissues: significantly increased
  stratum corneum thickness of the paw plantar skin: significantly higher than that of normal rats

## NC(=O)[C@H]1CCCc2c1[nH]c1ccc(Cl)cc21 [Crystal form A, (S)-6-chloro-2,3,4,9-tetrahydro-1H-carbazole-carboxamide]
[3]; DVS at 25°C, Table 15
  Hygroscopicity Conclusion: Slight hygroscopicity
[3]; Relative humidity 0% at 25°C
  1st adsorption Percentage of weight change: 0.3%
  1st desorption Percentage of weight change: 0.3%
  2nd adsorption Percentage of weight change: 0.2%
  2nd desorption Percentage of weight change: 0.2%
[3]; Relative humidity 10% at 25°C
  1st adsorption Percentage of weight change: 0.1%
  1st desorption Percentage of weight change: 0.3%
  2nd adsorption Percentage of weight change: 0.3%
  2nd desorption Percentage of weight change: 0.3%
[3]; Relative humidity 20% at 25°C
  1st adsorption Percentage of weight change: 0.3%
  1st desorption Percentage of weight change: 0.1%
  2nd adsorption Percentage of weight change: 0.3%
  2nd desorption Percentage of weight change: 0.2%
[3]; Relative humidity 30% at 25°C
  1st adsorption Percentage of weight change: 0.3%
  1st desorption Percentage of weight change: 0.1%
  2nd adsorption Percentage of weight change: 0.1%
  2nd desorption Percentage of weight change: 0.3%
[3]; Relative humidity 40% at 25°C
  1st adsorption Percentage of weight change: 0.1%
  1st desorption Percentage of weight change: 0.3%
  2nd adsorption Percentage of weight change: 0.3%
  2nd desorption Percentage of weight change: 0.4%
[3]; Relative humidity 50% at 25°C
  1st adsorption Percentage of weight change: 0.0%
  2nd desorption Percentage of weight change: 0.1%
[3]; Relative humidity 60% at 25°C
  1st adsorption Percentage of weight change: 0.4%
  2nd desorption Percentage of weight change: 0.4%
[3]; Relative humidity 70% at 25°C
  1st adsorption Percentage of weight change: 0.4%
  2nd desorption Percentage of weight change: 0.4%
[3]; Relative humidity 80% at 25°C
  1st adsorption Percentage of weight change: 0.5%
  2nd desorption Percentage of weight change: 0.2%
[3]; Relative humidity 90% at 25°C
  1st adsorption Percentage of weight change: 0.5%
  2nd desorption Percentage of weight change: 0.6%
[3]; Relative humidity 95% at 25°C
  1st adsorption Percentage of weight change: 0.7%
  2nd desorption Percentage of weight change: 0.7%
[3]; after DVS cycle 40-0-95-0-40%RH at 25°C
  XRPD after DVS testing: Crystal form A
[3]; from 40% to 95%RH, 25°C
  water absorption: 0.6%
[1]; 25°C/92.5%RH, open, 1 week
  Color: No change
  Degradation (%): None
  Purity (%): 99.8%
[1]; 60°C, closed, 1 week
  Color: No change
  Degradation (%): None
  Purity (%): 99.8%
[1]; Initial
  Purity (%): 99.8%

## NC(=O)[C@H]1CCCc2c1[nH]c1ccc(Cl)cc21 [Crystal form D, (S)-6-chloro-2,3,4,9-tetrahydro-1H-carbazole-carboxamide]
[1]; 25°C/92.5%RH, open, 1 week
  Color: No change
  Degradation (%): 0.6%
  Purity (%): 99.2%
[1]; 25°C/92.5%RH, open, 1 week, listed as crystal form D
  Degradation (%): 0.6%
[1]; 60°C, closed, 1 week
  Color: Changed
  Degradation (%): 1.1%
  Purity (%): 98.7%
  Crystal form: D+F
[1]; 60°C, closed, 1 week, listed as crystal form D
  Degradation (%): 1.1%
[1]; Initial
  Purity (%): 99.8%

## NC(=O)[C@H]1CCCc2c1[nH]c1ccc(Cl)cc21 [Crystal form E, (S)-6-chloro-2,3,4,9-tetrahydro-1H-carbazole-carboxamide]
[1]; 25°C/92.5%RH, open, 1 week
  Color: No change
  Degradation (%): 0.2%
  Purity (%): 99.2%
[1]; 25°C/92.5%RH, open, 1 week, listed as crystal form E
  Degradation (%): 0.2%
[1]; 60°C, closed, 1 week
  Color: Changed
  Degradation (%): 3.0%
  Purity (%): 96.4%
  Crystal form: E+F
[1]; 60°C, closed, 1 week, listed as crystal form E
  Degradation (%): 3.0%
[1]; Initial
  Purity (%): 99.4%

## CN(C)C/C=C/C(=O)Nc1cc2c(Nc3ccc(F)c(Cl)c3)ncnc2cc1O[C@H]1CCOC1 [Afatinib, afatinib, reference compound]
[2]; SD rats, once daily by gavage: sorafenib 100, erlotinib 70, afatinib 50, osimertinib 60 mg/kg
  successful modeling rates for the hand-foot skin reaction: 66.7%
[2]; immunohistochemical staining, successfully modeled rats, modeling drug alone
  KRT1 and Loricrin in tissues: significantly increased
[2]; [4]
  Incidence rate Left paw: 8/12 (66.7%)
  Incidence rate Right paw: 8/12 (66.7%)
[2]; successfully modeled rats, modeling drug alone, vs normal rats
  stratum corneum thickness of the paw plantar skin: significantly higher than that of normal rats
